Measured values as given in PubChem BioAssay (NCI).
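Cells were grown in 96-well plates and exposed to each compound for 48 hours at five concentrations; endpoints were interpolated linearly between bracketing concentrations, or set to the highest concentration if not reached. GI50 is the concentration that inhibits growth by half. The concentration for full growth arrest is given as TGI.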

Experiments:
Experiment in all cases: NCI anticancer screen, dose series, 48 h
[1] = system: DU-145 prostate
[2] = system: SN12C renal
[3] = system: OVCAR-5 ovarian
[4] = system: MCF7 breast
[5] = system: SNB-75 CNS
[6] = system: IGROV1 ovarian
[7] = system: T-47D breast
[8] = system: SK-MEL-5 melanoma
[9] = system: PC-3 prostate
[10] = system: M14 melanoma
[11] = system: SK-OV-3 ovarian
[12] = system: SF-268 CNS
[13] = system: U251 CNS
[14] = system: MDA-MB-435
[15] = system: HOP-92 NSCLC
[16] = system: MALME-3M melanoma
[17] = system: HCC-2998 colon
[18] = system: COLO 205 colon
[19] = system: UACC-62 melanoma
[20] = system: SF-295 CNS
[21] = system: RPMI-8226 leukemia
[22] = system: EKVX NSCLC
[23] = system: LOX IMVI melanoma
[24] = system: HOP-62 NSCLC
[25] = system: MDA-MB-231 breast
[26] = system: OVCAR-8 ovarian
[27] = system: OVCAR-4 ovarian
[28] = system: A498 renal
[29] = system: TK-10 renal
[30] = system: NCI-H226 lung
[31] = system: UO-31 renal
[32] = system: UACC-257 melanoma
[33] = system: CAKI-1 renal
[34] = system: NCI-H460 lung
[35] = system: NCI-H522 lung
[36] = system: HL-60(TB) leukemia
[37] = system: SK-MEL-2 melanoma
[38] = system: SW-620 colon
[39] = system: BT-549 breast
[40] = system: HCT-15 colon
[41] = system: HCT-116 colon
[42] = system: HT29 colon
[43] = system: NCI-H23 lung
[44] = system: 786-0 renal
[45] = system: SK-MEL-28 melanoma
[46] = system: A549 NSCLC
[47] = system: CCRF-CEM leukemia
[48] = system: ACHN renal
[49] = system: SR leukemia
[50] = system: SF-539 CNS
[51] = system: K-562 leukemia
[52] = system: MOLT-4 leukemia
[53] = system: RXF 393 renal
[54] = system: SNB-19 CNS
[55] = system: KM12 colon
[56] = system: NCI/ADR-RES ovarian
[57] = system: HS 578T breast

CN(C)CCNC(=O)c1ccc(-c2nc3ccc4[nH]ncc4c3c3c2COCC3)cc1
GI50 [1]: 1.49 µM
TGI [1]: 8.68 µM
GI50 [2]: 1 µM
TGI [2]: 5.4 µM
GI50 [3]: 3.01 µM
TGI [3]: 28.2 µM
GI50 [4]: 0.293 µM
TGI [4]: 7.66 µM
GI50 [5]: 0.382 µM
TGI [5]: 1.46 µM
GI50 [6]: 1.28 µM
TGI [6]: 9.2 µM
GI50 [7]: 0.75 µM
TGI [7]: > 100 µM
GI50 [8]: 2.27 µM
TGI [8]: 6.21 µM
GI50 [9]: 1.12 µM
TGI [9]: 8.12 µM
GI50 [10]: 1.37 µM
TGI [10]: 3.27 µM
GI50 [11]: 1.06 µM
TGI [11]: 28.5 µM
GI50 [12]: 0.292 µM
TGI [12]: 1.82 µM
GI50 [13]: 0.659 µM
TGI [13]: 16.3 µM
GI50 [14]: 0.677 µM
TGI [14]: 2.15 µM
GI50 [15]: 1 µM
TGI [15]: 5.86 µM
GI50 [16]: 0.786 µM
TGI [16]: 2.69 µM
GI50 [17]: 1.08 µM
TGI [17]: 3.24 µM
GI50 [18]: 0.48 µM
TGI [18]: 2.05 µM
GI50 [19]: 0.767 µM
TGI [19]: 2.57 µM
GI50 [20]: 3.27 µM
TGI [20]: 16 µM
GI50 [21]: 2.17 µM
TGI [21]: 7.31 µM
GI50 [22]: 2.17 µM
TGI [22]: 12.8 µM
GI50 [23]: 0.465 µM
TGI [23]: 1.85 µM
GI50 [24]: 1.1 µM
TGI [24]: 4.07 µM
GI50 [25]: 0.791 µM
TGI [25]: 5 µM
GI50 [26]: 1.23 µM
TGI [26]: 11.1 µM
GI50 [27]: 1.85 µM
TGI [27]: 8.91 µM
GI50 [28]: 1.19 µM
TGI [28]: 2.81 µM
GI50 [29]: 1.45 µM
TGI [29]: 7.13 µM
GI50 [30]: 1.24 µM
TGI [30]: 7.14 µM
GI50 [31]: 6.75 µM
TGI [31]: 62.4 µM
GI50 [32]: 2.41 µM
TGI [32]: 8.17 µM
GI50 [33]: 1.2 µM
TGI [33]: 12.7 µM
GI50 [34]: 2.2 µM
TGI [34]: 5.46 µM
GI50 [35]: 0.188 µM
TGI [35]: 0.372 µM
GI50 [36]: 1.3 µM
TGI [36]: 4.88 µM
GI50 [37]: 0.36 µM
TGI [37]: 1.12 µM
GI50 [38]: 0.527 µM
TGI [38]: 4.88 µM
GI50 [39]: 0.624 µM
TGI [39]: 2.37 µM
GI50 [40]: 10.8 µM
TGI [40]: > 100 µM
GI50 [41]: 0.367 µM
TGI [41]: 11.3 µM
GI50 [42]: 2.05 µM
TGI [42]: 6.99 µM
GI50 [43]: 1.24 µM
TGI [43]: 3.31 µM
GI50 [44]: 2.05 µM
TGI [44]: 9.43 µM
GI50 [45]: 1.28 µM
TGI [45]: 3.94 µM
GI50 [46]: 3.18 µM
TGI [46]: > 100 µM
GI50 [47]: 0.374 µM
TGI [47]: 50.4 µM
GI50 [48]: 2.85 µM
TGI [48]: 21.7 µM
GI50 [49]: 0.301 µM
TGI [49]: 2.25 µM
GI50 [50]: 0.512 µM
TGI [50]: 2.21 µM
GI50 [51]: 0.74 µM
TGI [51]: > 100 µM
GI50 [52]: 0.604 µM
TGI [52]: 5.21 µM
GI50 [53]: 0.239 µM
TGI [53]: 1.04 µM
GI50 [54]: 0.587 µM
TGI [54]: 7.47 µM
GI50 [55]: 0.955 µM
TGI [55]: 5.26 µM
GI50 [56]: 24.1 µM
TGI [56]: > 100 µM
GI50 [57]: 0.523 µM
TGI [57]: 3.58 µM
